Test results reported in ChEMBL document CHEMBL1201862, “PubChem BioAssay data set” (2004).
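Compound exposure: 48 hours, 5 concentrations, 96-well plates. GI50: concentration for 50% inhibition of growth.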 Calls of active or inactive are those of the source. Rule as the data show it: active = GI50 up to about 1.1 µM and inactive = higher.

Tests used:
Assay in all cases: NCI tumour cell line growth inhibition, 48 h
[1] = tested on: 786-0
[2] = tested on: A498
[3] = tested on: DLD-1
[4] = tested on: HOP-62
[5] = tested on: HT-29
[6] = tested on: MOLT-4
[7] = tested on: Malme-3M
[8] = tested on: NCI-H23
[9] = tested on: OVCAR-3
[10] = tested on: RXF 393
[11] = tested on: SF-295
[12] = tested on: SK-MEL-28
[13] = tested on: SK-MEL-5
[14] = tested on: SNB-75
[15] = tested on: SW-620
[16] = tested on: UACC-257
[17] = tested on: UO-31
[18] = tested on: LOX IMVI
[19] = tested on: MDA-MB-231

SMILES | GI50 [1] | GI50 [2] | GI50 [3] | GI50 [4] | GI50 [5] | GI50 [6] | GI50 [7] | GI50 [8] | GI50 [9] | GI50 [10] | GI50 [11] | GI50 [12] | GI50 [13] | GI50 [14] | GI50 [15] | GI50 [16] | GI50 [17] | GI50 [18] | GI50 [19]
Nc1nc(CCC(=O)Nc2cccc(C(F)(F)F)c2)cc(-c2ccc3ccccc3c2)n1 | > 100 µM (inactive) | > 100 µM (inactive) | > 100 µM (inactive) | > 100 µM (inactive) | > 100 µM (inactive) | > 100 µM (inactive) | > 100 µM (inactive) | > 100 µM (inactive) | > 100 µM (inactive) | > 100 µM (inactive) | > 100 µM (inactive) | > 100 µM (inactive) | > 100 µM (inactive) | > 100 µM (inactive) | > 100 µM (inactive) | > 100 µM (inactive) | > 100 µM (inactive) | – | –
COC1(OC)CCC2C1C1CCC(OC)(OC)C21 (stereo unspecified) | > 50 µM (inactive) | > 50 µM (inactive) | > 50 µM (inactive) | > 50 µM (inactive) | > 50 µM (inactive) | > 50 µM (inactive) | > 50 µM (inactive) | > 50 µM (inactive) | > 50 µM (inactive) | > 50 µM (inactive) | > 50 µM (inactive) | > 50 µM (inactive) | > 50 µM (inactive) | > 50 µM (inactive) | > 50 µM (inactive) | > 50 µM (inactive) | > 50 µM (inactive) | – | –
Cc1cc(C)nc(/C(=N\NC(N)=O)C(=O)Nc2nc3ccc(C)cc3s2)c1 | > 100 µM (inactive) | > 100 µM (inactive) | > 85.3 µM (inactive) | > 100 µM (inactive) | > 77.3 µM (inactive) | > 100 µM (inactive) | > 100 µM (inactive) | > 100 µM (inactive) | > 100 µM (inactive) | > 100 µM (inactive) | > 100 µM (inactive) | > 100 µM (inactive) | > 100 µM (inactive) | > 100 µM (inactive) | > 100 µM (inactive) | > 100 µM (inactive) | > 100 µM (inactive) | > 46.6 µM (inactive) | –
COc1ccc(/C(=N\NC(=S)NN)C(c2ccc(OC)cc2)C2C(=O)Oc3ccccc32)cc1 (stereo unspecified) | > 10 µM (inactive) | > 10 µM (inactive) | > 10 µM (inactive) | > 10 µM (inactive) | > 10 µM (inactive) | – | > 10 µM (inactive) | > 10 µM (inactive) | > 10 µM (inactive) | > 10 µM (inactive) | > 10 µM (inactive) | 56.2 µM (inactive) | > 10 µM (inactive) | > 10 µM (inactive) | > 10 µM (inactive) | > 10 µM (inactive) | > 10 µM (inactive) | > 10 µM (inactive) | –
C=CCCCCn1c2ccccc2c2c(C)c3c[n+](C)ccc3c(C)c21 | 0.752 µM (active) | 1.44 µM (inactive) | 0.607 µM (active) | 0.643 µM (active) | 0.271 µM (active) | 0.298 µM (active) | 0.275 µM (active) | 0.382 µM (active) | 0.288 µM (active) | 0.684 µM (active) | 0.208 µM (active) | 0.426 µM (active) | 0.329 µM (active) | 0.713 µM (active) | 0.296 µM (active) | 0.391 µM (active) | 5.28 µM (inactive) | 0.284 µM (active) | –
COC1CCC(OC)C(C2(C3CC(OC)CCC3OC)OC(=O)c3ccccc32)C1 (stereo unspecified) | > 100 µM (inactive) | > 100 µM (inactive) | > 100 µM (inactive) | > 100 µM (inactive) | 33.8 µM (inactive) | 14.6 µM (inactive) | > 100 µM (inactive) | 80.7 µM (inactive) | 75.9 µM (inactive) | > 100 µM (inactive) | 82.2 µM (inactive) | – | 26.4 µM (inactive) | > 100 µM (inactive) | 59.2 µM (inactive) | > 100 µM (inactive) | 70.3 µM (inactive) | – | –
COc1cc(/C=C/c2ccc(/C=C/c3cc(OC)c(OC)c(OC)c3)cc2)cc(OC)c1OC | 7.94 µM (inactive) | 10.5 µM (inactive) | 42.3 µM (inactive) | 16.6 µM (inactive) | 8.26 µM (inactive) | > 100 µM (inactive) | 20.3 µM (inactive) | 12.3 µM (inactive) | 25.2 µM (inactive) | 6.68 µM (inactive) | 10.9 µM (inactive) | 26.1 µM (inactive) | 34.4 µM (inactive) | 6.34 µM (inactive) | > 84.9 µM (inactive) | 58.7 µM (inactive) | 36.1 µM (inactive) | 34.4 µM (inactive) | 19.9 µM (inactive)
COC1=CC(=O)C2C(C1=O)[C@@H]1c3ccccc3C[C@H]21 (stereo partly specified) | > 100 µM (inactive) | > 100 µM (inactive) | > 100 µM (inactive) | > 100 µM (inactive) | > 100 µM (inactive) | > 100 µM (inactive) | > 100 µM (inactive) | > 100 µM (inactive) | > 100 µM (inactive) | > 100 µM (inactive) | > 100 µM (inactive) | > 100 µM (inactive) | > 100 µM (inactive) | 89.9 µM (inactive) | > 100 µM (inactive) | > 100 µM (inactive) | > 100 µM (inactive) | > 100 µM (inactive) | –
c1ccc2c(C3NCCc4nc[nH]c43)cccc2c1 (stereo unspecified) | > 100 µM (inactive) | > 100 µM (inactive) | > 100 µM (inactive) | > 100 µM (inactive) | > 100 µM (inactive) | > 100 µM (inactive) | – | > 100 µM (inactive) | > 100 µM (inactive) | > 100 µM (inactive) | > 100 µM (inactive) | > 100 µM (inactive) | > 100 µM (inactive) | > 100 µM (inactive) | > 100 µM (inactive) | > 100 µM (inactive) | > 100 µM (inactive) | > 100 µM (inactive) | –
CC(=O)OCCOCNC(=S)N/N=C(\C)c1cnccn1 | 33.4 µM (inactive) | 58.6 µM (inactive) | 34.3 µM (inactive) | 27.4 µM (inactive) | 41 µM (inactive) | 14.1 µM (inactive) | 30.2 µM (inactive) | 58.2 µM (inactive) | 23.7 µM (inactive) | 23.2 µM (inactive) | 36.3 µM (inactive) | 42.5 µM (inactive) | 15.4 µM (inactive) | 33.5 µM (inactive) | 23.9 µM (inactive) | 43.1 µM (inactive) | 18.9 µM (inactive) | 57.1 µM (inactive) | –
N#C/C(=C\c1cc(O)cc(O)c1)C(N)=O | > 100 µM (inactive) | > 100 µM (inactive) | > 100 µM (inactive) | > 100 µM (inactive) | > 100 µM (inactive) | > 100 µM (inactive) | > 100 µM (inactive) | > 100 µM (inactive) | > 100 µM (inactive) | > 100 µM (inactive) | > 100 µM (inactive) | > 100 µM (inactive) | – | 22 µM (inactive) | > 100 µM (inactive) | > 100 µM (inactive) | > 100 µM (inactive) | – | –
CC(=O)OC1CC2Oc3ccc(C)cc3C(C)(O2)C1=O (stereo unspecified) | > 100 µM (inactive) | – | > 100 µM (inactive) | > 100 µM (inactive) | > 100 µM (inactive) | > 100 µM (inactive) | > 100 µM (inactive) | > 100 µM (inactive) | > 100 µM (inactive) | > 100 µM (inactive) | > 100 µM (inactive) | > 100 µM (inactive) | > 100 µM (inactive) | 51.1 µM (inactive) | > 100 µM (inactive) | > 100 µM (inactive) | > 100 µM (inactive) | > 100 µM (inactive) | –
CCOC(=O)C1S/C(=N\c2cccc(Cl)c2C)N=C1C (stereo unspecified) | 16.1 µM (inactive) | 34.2 µM (inactive) | > 10 µM (inactive) | 80 µM (inactive) | 17 µM (inactive) | 29.7 µM (inactive) | 19.6 µM (inactive) | > 10 µM (inactive) | 22.9 µM (inactive) | 21.7 µM (inactive) | 18.8 µM (inactive) | 40 µM (inactive) | – | 16.3 µM (inactive) | 28.4 µM (inactive) | > 10 µM (inactive) | 37.4 µM (inactive) | 18.1 µM (inactive) | –
CC12CCC(=O)N1c1cc([N+](=O)[O-])ccc1N2 (stereo unspecified) | > 100 µM (inactive) | > 100 µM (inactive) | > 100 µM (inactive) | > 100 µM (inactive) | > 100 µM (inactive) | > 100 µM (inactive) | > 100 µM (inactive) | > 100 µM (inactive) | > 100 µM (inactive) | > 100 µM (inactive) | > 100 µM (inactive) | > 100 µM (inactive) | > 100 µM (inactive) | > 100 µM (inactive) | > 100 µM (inactive) | > 100 µM (inactive) | > 100 µM (inactive) | > 100 µM (inactive) | –
O=C(NCCCl)SCCO | > 100 µM (inactive) | > 100 µM (inactive) | > 100 µM (inactive) | > 100 µM (inactive) | > 100 µM (inactive) | > 100 µM (inactive) | > 100 µM (inactive) | > 100 µM (inactive) | > 100 µM (inactive) | > 100 µM (inactive) | > 100 µM (inactive) | > 100 µM (inactive) | – | > 100 µM (inactive) | > 100 µM (inactive) | > 100 µM (inactive) | > 100 µM (inactive) | – | –
CCC1=C(C)/C(=C/c2[nH]c(C(Br)Br)c(CC)c2C)N=C1C(Br)Br | 63.2 µM (inactive) | – | 25.6 µM (inactive) | 28.6 µM (inactive) | 28.5 µM (inactive) | 5.93 µM (inactive) | 35 µM (inactive) | 32.4 µM (inactive) | 23.2 µM (inactive) | 29.9 µM (inactive) | 26.1 µM (inactive) | 45.4 µM (inactive) | 16.6 µM (inactive) | 21.6 µM (inactive) | 33.1 µM (inactive) | 19.9 µM (inactive) | 20.7 µM (inactive) | 21.2 µM (inactive) | –
